Where “and” joins values, the source holds several entries; their conditions need not be identical. Equal entries are not always repeated.
System: 435261-313-R-J1-PDC tumor spheroid viability
Experiment: Anticancer human tumor 435261-313-R-J1-PDC patient-derived colon adenocarcinoma cell line growth inhibition [PI3K]
Conditions: spheroids with HUVEC and MSC; for viability, T/C: stronger effect = lower value
Outline: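 Tumor cells were combined with HUVEC and MSCs into spheroids, then dosed with PI3K-inhibitor combinations over half-log ranges capped near clinical Cmax or 10 microM.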

[1] = curve of first compound, second compound 0.0316 µM
[2] = curve of first compound, second compound 0.1 µM
[3] = curve of first compound, second compound 0.316 µM
[4] = curve of first compound, second compound 1 µM
[5] = curve of first compound, second compound 3.16 µM
[6] = curve of first compound, second compound 10 µM
[7] = second compound 0.0316 µM, first compound 0.0316 µM
[8] = second compound 0.0316 µM, first compound 0.1 µM
[9] = second compound 0.0316 µM, first compound 0.316 µM
[10] = second compound 0.0316 µM, first compound 1 µM
[11] = second compound 0.0316 µM, first compound 3.16 µM
[12] = second compound 0.0316 µM, first compound 10 µM
[13] = second compound 0.1 µM, first compound 0.0316 µM
[14] = second compound 0.1 µM, first compound 0.1 µM
[15] = second compound 0.1 µM, first compound 0.316 µM
[16] = second compound 0.1 µM, first compound 1 µM
[17] = second compound 0.1 µM, first compound 3.16 µM
[18] = second compound 0.1 µM, first compound 10 µM
[19] = second compound 0.316 µM, first compound 0.0316 µM
[20] = second compound 0.316 µM, first compound 0.1 µM
[21] = second compound 0.316 µM, first compound 0.316 µM
[22] = second compound 0.316 µM, first compound 1 µM
[23] = second compound 0.316 µM, first compound 3.16 µM
[24] = second compound 0.316 µM, first compound 10 µM
[25] = second compound 1 µM, first compound 0.0316 µM
[26] = second compound 1 µM, first compound 0.1 µM
[27] = second compound 1 µM, first compound 0.316 µM
[28] = second compound 1 µM, first compound 1 µM
[29] = second compound 1 µM, first compound 3.16 µM
[30] = second compound 1 µM, first compound 10 µM
[31] = second compound 3.16 µM, first compound 0.0316 µM
[32] = second compound 3.16 µM, first compound 0.1 µM
[33] = second compound 3.16 µM, first compound 0.316 µM
[34] = second compound 3.16 µM, first compound 1 µM
[35] = second compound 3.16 µM, first compound 3.16 µM
[36] = second compound 3.16 µM, first compound 10 µM
[37] = second compound 10 µM, first compound 0.0316 µM
[38] = second compound 10 µM, first compound 0.1 µM
[39] = second compound 10 µM, first compound 0.316 µM
[40] = second compound 10 µM, first compound 1 µM
[41] = second compound 10 µM, first compound 3.16 µM
[42] = second compound 10 µM, first compound 10 µM
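Also: spheroids exposed to compounds for 7 days.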

`CC(Cn1ccc(-c2ccc(C#N)c(Cl)c2)n1)NC(=O)c1cc(C(C)O)[nH]n1` (stereo unspecified) + Cc1nc(NC(=O)N2CCCC2C(N)=O)sc1-c1ccnc(C(C)(C)C(F)(F)F)c1 was tested, and the IC50 [1] was over 10000 nM, the IC50 [2] was over 10000 nM and the IC50 [3] was under 31.6 nM. The IC50 [4] was under 31.6 nM, the IC50 [5] was under 31.6 nM and the IC50 [6] was under 31.6 nM. The viability, T/C [7] was 107%, the viability, T/C [8] was 71.6% and the viability, T/C [9] was 83.6%. The viability, T/C [10] was 84.8%, the viability, T/C [11] was 101% and the viability, T/C [12] was 106%. It also gave a viability, T/C [13] of 68.3%, a viability, T/C [14] of 70.4% and a viability, T/C [15] of 71.3%. It also gave a viability, T/C [16] of 72.2%, a viability, T/C [17] of 66.3% and a viability, T/C [18] of 73.7%. The viability, T/C [19] was 37.6%, the viability, T/C [20] was 54.1% and the viability, T/C [21] was 37.3%. The viability, T/C [22] was 50.9%, the viability, T/C [23] was 63.7% and the viability, T/C [24] was 49.4%. The viability, T/C [25] was 24.6%, the viability, T/C [26] was 36.8% and the viability, T/C [27] was 36.3%. For the same compound, the viability, T/C [28] was 34.2%, the viability, T/C [29] was 38.6% and the viability, T/C [30] was 31.6%. It also gave a viability, T/C [31] of 17.4%, a viability, T/C [32] of 17.7% and a viability, T/C [33] of 15.4%. It also gave a viability, T/C [34] of 17.9%, a viability, T/C [35] of 18.8% and a viability, T/C [36] of 20.1%. It also gave a viability, T/C [37] of 9.77%, a viability, T/C [38] of 6.96% and a viability, T/C [39] of 8.76%. The viability, T/C [40] was 9.85%, the viability, T/C [41] was 10.7% and the viability, T/C [42] was 6%.
In the case of `CC(C)NCC(C(=O)N1CCN(c2ncnc3c2C(C)CC3O)CC1)c1ccc(Cl)cc1` (stereo unspecified), the viability, T/C (compound 0.0316 µM) is reported as 76.4% and 94.8% and 95.1%, the viability, T/C (compound 0.1 µM) is reported as 90.5% and 77% and 73.2% and the viability, T/C (compound 0.316 µM) is reported as 95.1% and 85.8% and 97.9%. The viability, T/C (compound 1 µM) was 57.7% and 48.9% and 79%, the viability, T/C (compound 3.16 µM) was 58.6% and 52.4% and 76.3% and the viability, T/C (compound 10 µM) was 20.2% and 36.6% and 29%. For the same compound, the IC50 (curve of compound) was 3560 nM and 965 nM and 5920 nM.
`CC1(C)CCC(Nc2ncc(C(F)(F)F)c(-c3c[nH]c4c(P(C)(C)=O)c(C#N)ccc34)n2)CN1` (stereo unspecified) + CC(Nc1ncnc2nc[nH]c12)c1cc2cccc(Cl)c2c(=O)n1-c1ccccc1 was tested, and the IC50 [1] was 2550 nM, the IC50 [2] was 1920 nM and the IC50 [3] was 1470 nM. The IC50 [4] was 1550 nM, the IC50 [5] was under 31.6 nM and the IC50 [6] was under 31.6 nM. The viability, T/C [7] was 61.1%, the viability, T/C [8] was 52.4% and the viability, T/C [9] was 61.4%. For the same compound, the viability, T/C [10] was 61.4%, the viability, T/C [11] was 48% and the viability, T/C [12] was 1.46%. It also gave a viability, T/C [13] of 70.5%, a viability, T/C [14] of 60.4% and a viability, T/C [15] of 53.4%. It also gave a viability, T/C [16] of 60.6%, a viability, T/C [17] of 44.4% and a viability, T/C [18] of 2.25%. It also gave a viability, T/C [19] of 56.9%, a viability, T/C [20] of 57.8% and a viability, T/C [21] of 58.2%. For the same compound, the viability, T/C [22] was 50.9%, the viability, T/C [23] was 43.5% and the viability, T/C [24] was 0.98%. The viability, T/C [25] was 50.5%, the viability, T/C [26] was 52.1% and the viability, T/C [27] was 57.2%. It also gave a viability, T/C [28] of 57%, a viability, T/C [29] of 44.3% and a viability, T/C [30] of 1.03%. The viability, T/C [31] was 37.3%, the viability, T/C [32] was 42.8% and the viability, T/C [33] was 44%. For the same compound, the viability, T/C [34] was 47.8%, the viability, T/C [35] was 36.9% and the viability, T/C [36] was 0.77%. The viability, T/C [37] was 33.6%, the viability, T/C [38] was 27.4% and the viability, T/C [39] was 27.7%. The viability, T/C [40] was 31.1%, the viability, T/C [41] was 22.3% and the viability, T/C [42] was 1.14%.

From PubChem BioAssay AID1963976 (Molecular Pharmacology Branch, DTP, NCI, 2024)
